One molecule from ChEMBL document CHEMBL5236632, “Membrane-Active Nonivamide Derivatives as Effective Broad-Spectrum Antimicrobials: Rational Design, Synthesis, and Biological Evaluation” (J Med Chem, 2022) can be followed below.

As a reminder, the MIC is the lowest concentration found to suppress growth. As a reminder, the inhibition is the change of the read-out against control, counted positive when it falls.

≈ marks a conversion by molar mass, not a printed value.

One data set concerns Acinetobacter baumannii. Put plainly: Antibacterial activity against Acinetobacter baumannii R2889 assessed as inhibition of visible growth measured after 18 to 24 hrs by broth dilution method. It counts as functional. Conditions: time 18-24 hrs. A general note: Dilution methods test growth across graded concentrations, often in twofold steps.
Data set [1] relates to Staphylococcus aureus. Put plainly: Antibacterial activity against Staphylococcus aureus ATCC 29213 assessed as inhibition of visible growth measured after 18 to 24 hrs in presence of 175.5 ug/ml K+ by broth dilution method. It counts as functional. Conditions: time 18-24 hrs.
The next data set concerns Lipopolysaccharide (LPS). Put plainly: Displacement of BODIPY-TR-cadaverin from Escherichia coli lipopolysaccharide at MIC concentration incubated for 30 mins by fluorescence based analysis.
The subject of data set [2] is Escherichia coli. As to the kind of experiment: Eradication of biofilm in Escherichia coli ATCC 25922 assessed as biofilm viability at 25 ug/ml measured after 24 hrs by crystal violet staining assay. It counts as functional. Conditions: dose 25 µg/ml.
The nature of data set [3]: Toxicity in C57BL/6 mouse cornea assessed as toxicity at 5 mg/ml treated topically. It counts as tissue-based. To be noted: in vivo, topical_or_ocular, route top.
A further data set concerns Pseudomonas aeruginosa. As to the kind of experiment: Antibacterial activity against Pseudomonas aeruginosa ATCC 9027 assessed as inhibition of visible growth measured after 18 to 24 hrs by broth dilution method. The data set is classed as functional. To be noted: time 18-24 hrs.
Data set [4] concerns Staphylococcus aureus. Put plainly: Eradication of biofilm in Staphylococcus aureus ATCC 29213 assessed as biofilm viability at 6.25 ug/ml measured after 24 hrs by crystal violet staining assay. It counts as functional. Conditions: dose 6.25 µg/ml.
The nature of data set [5]: Toxicity in C57BL/6 mouse cornea assessed as corneal damage at 5 mg/ml treated topically. It counts as tissue-based. To be noted: in vivo, topical_or_ocular, route top.
Data set [6] relates to Escherichia coli. Put plainly: Inhibition of biofilm formation Escherichia coli ATCC 25922 assessed as decrease in biofilm formation at 6.25 ug/ml measured after 24 hrs by crystal violet staining assay. The data set is classed as functional.

Turning to `CCCCCCCCC(=O)NCc1ccc(OCCCCCCNC(=N)N)c(OCCCCCCNC(=N)N)c1`, the MIC in the data set with Acinetobacter baumannii turned out to be 6.25 µg/mL (≈ 11.1 µM); with Staphylococcus aureus [1] it was 0.39 µg/mL; with Pseudomonas aeruginosa it was 6.25 µg/mL (≈ 11.1 µM). Further, the Activity in the data set with Lipopolysaccharide (LPS) is 56.4%; in the data set with Escherichia coli [2], 7.05%; in [3] it was “Non-Toxic”; in the data set on Staphylococcus aureus [4] it was 10.9%; in data set [5] it was “Non-Toxic”. For the same molecule, the inhibition at 6.25 µg/mL in the data set on Escherichia coli [6] is 109%.
